Data from patent US20080089894A1, “Transplant tolerance by costimulation blockade and T-cell activation-induced apoptosis” (priority 1998, published 2008).
Several values for one entry are separate records, joined by “and”; a condition that tells them apart may be missing. Identical values can stand only once.

System: BALB/c mouse heart allografts
Assay: BALB/c mouse heart allograft survival in C3H/He mice
Format: in vivo
Settings: BALB/c heart allograft in C3H/He host; one value per mouse; checked daily by palpitation; time in days
Experimental: A control group of three C3H/He mice received syngeneic transplants. The treatments were given as follows:
Group 1) Anti-CD40L+CTLA4-Ig
Anti-CD40L: 250 μg/injection i.v. (intravenous) on day 0, i.p. (intraperitoneal) on day +2, +4,
CTLA4-Ig: 200 μg/injection i.p. on day 0, +2, +4, +6.
Anti-CD40L: 250 μg/injection i.v. on day 0, i.p. on day +2, +4,
CTLA4-Ig: 200 μg/injection i.p. on day 0, +2, +4, +6,
Group 3) Anti-CD40L+CTLA4-Ig+RPM
CTLA4-Ig: 200 μg/injection i.p. on day 0, +2, +4, +6
RPM: 0.2 mg/kg/day i.p. on day 0, +1, +2, then every other day to day +14.
RPM: 0.2 mg/kg/day i.p. on day 0, +1, +2, then every other day to day +14. The hosts were checked daily for graft survival by palpitation. In addition, other mice were sacrificed for pathologic examination at various time points.

CO[C@H]1C[C@@H]2CC[C@@H](C)[C@@](O)(O2)C(=O)C(=O)N2CCCC[C@H]2C(=O)O[C@H]([C@H](C)C[C@@H]2CC[C@@H](O)[C@H](OC)C2)CC(=O)[C@H](C)/C=C(\C)[C@@H](O)[C@@H](OC)C(=O)[C@H](C)C[C@H](C)/C=C/C=C/C=C/1C [RPM, rapamycin]
Graft Survival: > 100 (3×) and > 97 and > 89
